Measurements taken from PubChem BioAssay AID1117296 (The Scripps Research Institute Molecular Screening Center, 2014).
Calls of active or inactive are those of the source.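 Rule for the calls: active = IC50 at or below 10 µM; inactive = IC50 above 10 µM.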

Tested on: HuH7 TTR-promoter Gaussia luciferase reporter, luminescence
Assay: TTR transcription inhibitors in hepatoma cells, dose response, counter-screen for TTR transcription activator project, cell-based, luminescence, HuH7 hepatoma, IC50 (AID 1117296)

SMILES | IC50
Cn1ncc(Cl)c1C(=O)N1CCc2ccccc21 | > 167 µM (inactive)
Cc1cc(C(=O)N2CCc3ccccc32)n(-c2ccccc2)n1 | 175 µM (inactive)
CC(Oc1ccccc1)C(=O)N1CCN=C1SCc1ccccc1 (stereo not given) | 70.7 µM (inactive)
CCn1ncc(/C=N\NC(=O)c2csc3ccccc23)c1C | > 167 µM (inactive)
CC(=O)c1cc(C(C)=O)c(C)nc1C | > 167 µM (inactive)
Cc1ccc([C@H]2C[C@@H](O)[C@H](n3cc(-c4ccc(F)cc4)nn3)CN2C(=O)c2cccs2)cc1 | 63 µM (inactive)
CN(C)CCNc1ccc(CO)c2oc3ccc(O)cc3c(=O)c12 | > 55.2 µM (inactive)
Cc1c(Br)c(C(=O)N2CCc3ccccc32)nn1C | > 167 µM (inactive)
CC1CN(Cc2ccccc2)c2nc3c(c(=O)n(CC(N)=O)c(=O)n3C)n2C1 (stereo not given) | > 167 µM (inactive)
COc1ccc2[nH]c3c(Cl)ncnc3c2c1 | > 167 µM (inactive)
c1ccc(Sc2ncnc3c2oc2ccccc23)nc1 | 142 µM (inactive)
COc1ccc(CCNc2c3ccccc3nc3ccccc23)cc1OC | 54.4 µM (inactive)
COc1ccc(-c2noc(-c3cccs3)n2)cc1OC | > 167 µM (inactive)
Cn1ncc(Br)c1C(=O)N1CCc2ccccc21 | > 167 µM (inactive)
COc1cccc(-c2csc(NC(=O)C3CC3)n2)c1 | 103 µM (inactive)
OCCNc1c2ccccc2nc2ccccc12 | 54.9 µM (inactive)
CCCCn1c(O)c(C(=O)/C=C/c2ccc3c(c2)OCO3)c(=O)[nH]c1=O | 90.9 µM (inactive)
Cc1cc(C)n(CC(=O)n2c(C)c(C)c3ccccc32)n1 | > 167 µM (inactive)
C/C(=N\Nc1ncc(Br)cn1)c1cccc([N+](=O)[O-])c1 | > 167 µM (inactive)
CC(C)CNC(=O)CSc1nnc2ccccn12 | > 167 µM (inactive)
O=[N+]([O-])c1cccc(-c2noc(-c3ccco3)n2)c1 | > 167 µM (inactive)
[O-]/C(=C(\C(=S)Nc1ccc(SC(F)F)cc1)[n+]1ccccc1)c1cc(Cl)ccc1Cl | > 167 µM (inactive)
Cc1ccccc1Cn1cc(COC(=O)N(C)Cc2ccccc2)nn1 | 115 µM (inactive)
N=c1ccn(CC(=O)NC(N)=O)c2ccccc12 | > 167 µM (inactive)
CCOc1ccc(N=C2NC(=O)S/C2=C\c2ccc(O)cc2)cc1 | > 167 µM (inactive)
Cc1c(NS(=O)(=O)c2ccc(NC3CCCC3)c([N+](=O)[O-])c2)c(=O)n(-c2ccccc2)n1C | > 167 µM (inactive)
CCOC(=O)Nc1nc(-c2ccccc2)c(C(=O)c2ccc(Cl)cc2)s1 | > 55.2 µM (inactive)
Cn1c(O)c(/C=C2\N=c3ccccc3=C2CCNC(=S)NC2CC2)c(=O)n(C)c1=O | 45 µM (inactive)

SMILES | IC50
Cc1ccc(CNC(=O)Cc2ccc(-c3ccccc3)cc2)cc1 | > 167 µM (inactive)
Cc1nnc(SCc2ccc(Cl)cc2)nc1/C=C/N(C)C | 81.3 µM (inactive)
COc1ccc(C(=O)NC2CCCc3c2cnn3-c2cc(F)cc(F)c2)c(OC)c1OC (stereo not given) | 61.9 µM (inactive)
COc1ccc2cc3c(N)nn(C(=O)c4ccccc4[N+](=O)[O-])c3nc2c1 | 34.8 µM (inactive)
COc1ccc([C@@H]2CC=C(C(=O)O)[C@H](c3ccccc3F)N2S(=O)(=O)c2ccccc2C)cc1 | 66.3 µM (inactive)
O=C(CCl)c1cc2c3c(c1)CC(=O)N3CCC2 | 19.8 µM (inactive)
CCCNC(=O)c1ccc(N2CCC3(CC2)CC(c2ccccc2)=NO3)c(NC(=O)c2ccco2)c1 | > 167 µM (inactive)
Cc1ccc(C2CC(c3ccccc3)=NN2C(=S)Nc2ccccc2)o1 (stereo not given) | > 167 µM (inactive)
O=c1cc(O)c2sc(Nc3ccc(Cl)c(F)c3)nc2[nH]1 | > 167 µM (inactive)
Cn1nccc1C(=O)N1CCc2ccccc21 | > 167 µM (inactive)
Cc1cccc(NC(c2ccc(O)cc2)c2ccc3ccc(C)nc3c2O)n1 (stereo not given) | 61.8 µM (inactive)
Cc1cnc(NC(=O)CCCc2nc3ccccc3s2)s1 | > 167 µM (inactive)
c1cc2c(cc1C1=Nn3c(nnc3C3CCCCC3)SC1)OCO2 | 47.1 µM (inactive)
Cc1c(C(=O)N2CCc3ccccc32)cnn1C | > 167 µM (inactive)
Cc1nn(C)c(C(=O)N2CCc3ccccc32)c1Br | > 167 µM (inactive)
COc1ccc(-c2cc(C)no2)cc1S(=O)(=O)NCc1cccc(C)c1 | > 167 µM (inactive)
O=C/C(=C\Nc1ccccn1)c1nc2ccccc2o1 | > 18.4 µM (inactive)
CN(Cc1ccccc1)C(=O)c1[nH]cnc1C(=O)NCC(=O)OC(C)(C)C | > 167 µM (inactive)
Cn1cc(Br)c(C(=O)N2CCc3ccccc32)n1 | > 167 µM (inactive)
CN(C)CC(CCC(CN(C)C)C(O)(c1ccccc1)c1ccccc1)C(O)(c1ccccc1)c1ccccc1 (stereo not given) | 17.2 µM (inactive)
CCCC(=O)NC1=C(N2CC2)C(=O)C(NC(=O)CCC)=C(N2CC2)C1=O | 23.5 µM (inactive)
C=CCn1c(=O)c2c(nc3n2CC(C)CN3Cc2ccccc2)n(C)c1=O (stereo not given) | 82.5 µM (inactive)
Cc1cccc(N(C)c2ncnc3onc(-c4ccc(F)cc4)c23)c1C | > 55.2 µM (inactive)
Cc1ccc(Nc2c3c(nc4ncnn24)CCC3)cc1 | > 167 µM (inactive)
Cc1ccc(/C=N/NC(=O)c2csc(C)c2)o1 | 116 µM (inactive)
Cn1cc(C2CC(c3ccccc3)=NN2C(=O)c2ccccc2)c2ccccc21 (stereo not given) | > 167 µM (inactive)
O=C(O)c1ccc(CSc2nnc(Cc3ccccc3)o2)cc1 | 27.3 µM (inactive)
